Reference: ChEMBL document CHEMBL5726857, “Bacterial topoisomerase I inhibitors with antibacterial activity” (2019)

Legend:
[1] = DNA Gyrase Supercoiling Inhibition Assay: DNA gyrase supercoiling assays were carried out by mixing the compounds and the enzyme in a similar manner as above (EcTopI relaxation inhibition assay) but in a gyrase assay buffer (35 mM Tris-HCl, 24 mM KCl, 4 mM MgCl2, 2 mM DTT, 1.75 mM ATP, 5 mM spermidine, 0.1 mg/mL BSA, 6.5% glycerol at pH 7.5), followed by the addition of 300 ng of relaxed covalently closed circular DNA (New England Biolabs, Ipswich, Mass., USA) to a final reaction volume of 20 μL. The samples were incubated at 37° C. for 30 minutes before being terminated by the addition of a buffer containing 5% SDS, 0.25% bromophenol blue, and 25% glycerol. The reactions were then analyzed by agarose gel electrophoresis.; design: species or system Escherichia coli
[2] = E. coli Topoisomerase I Relaxation Activity Inhibition Assay: The relaxation activity of E. coli topoisomerase I was assayed in a buffer containing 10 mM Tris-HCl, pH 8.0, 50 mM NaCl, 0.1 mg/mL gelatin, and 0.5 mM MgCl2. Half microliter from the appropriate stock solutions of compounds dissolved in the solvent (DMSO) or the solvent alone (control) was mixed with 9.5 μL of the reaction buffer containing 10 ng of enzyme before the addition of 10 μL of reaction buffer containing 200 ng of supercoiled pBAD/Thio plasmid DNA purified by cesium chloride gradient as substrate. Following incubation at 37° C. for 30 min, the reactions were terminated by the addition of 4 μL of a stop buffer (50% glycerol, 50 mM EDTA, and 0.5% (v/v) bromophenol blue), and analyzed by agarose gel electrophoresis. The gels were stained in ethidium bromide and photographed under UV light.

Structure (SMILES)	IC50 [1] [µM]	IC50 [2] [µM]
CN1CCN(c2c(F)cc3c(=O)c(C(=O)O)cn4c3c2Oc2cc(N)ccc2-4)CC1	23.4	–
Nc1ccc2c(c1)Oc1c(N3CCNCC3)c(F)cc3c(=O)c(C(=O)O)cn-2c13	11.7	–
Nc1ccc2c(c1)Oc1c(N3CCCCC3)c(F)cc3c(=O)c(C(=O)O)cn-2c13	–	3.9
CCCCCNc1c(F)cc2c(=O)c(C(=O)O)cn3c2c1Oc1cc(N)ccc1-3	–	15.6
